This is an account of results in patent US20180353460A1, “METHODS OF TREATING UROLOGICAL DISORDERS USING SARMs” (priority 2014, published 2018).

Structures are written as SMILES. Read-outs that look alike come from different tables or passages of the source.

The target of one test is T1, AR (Homo sapiens, UniProt P10275).
T1 sequence (P10275 1-920): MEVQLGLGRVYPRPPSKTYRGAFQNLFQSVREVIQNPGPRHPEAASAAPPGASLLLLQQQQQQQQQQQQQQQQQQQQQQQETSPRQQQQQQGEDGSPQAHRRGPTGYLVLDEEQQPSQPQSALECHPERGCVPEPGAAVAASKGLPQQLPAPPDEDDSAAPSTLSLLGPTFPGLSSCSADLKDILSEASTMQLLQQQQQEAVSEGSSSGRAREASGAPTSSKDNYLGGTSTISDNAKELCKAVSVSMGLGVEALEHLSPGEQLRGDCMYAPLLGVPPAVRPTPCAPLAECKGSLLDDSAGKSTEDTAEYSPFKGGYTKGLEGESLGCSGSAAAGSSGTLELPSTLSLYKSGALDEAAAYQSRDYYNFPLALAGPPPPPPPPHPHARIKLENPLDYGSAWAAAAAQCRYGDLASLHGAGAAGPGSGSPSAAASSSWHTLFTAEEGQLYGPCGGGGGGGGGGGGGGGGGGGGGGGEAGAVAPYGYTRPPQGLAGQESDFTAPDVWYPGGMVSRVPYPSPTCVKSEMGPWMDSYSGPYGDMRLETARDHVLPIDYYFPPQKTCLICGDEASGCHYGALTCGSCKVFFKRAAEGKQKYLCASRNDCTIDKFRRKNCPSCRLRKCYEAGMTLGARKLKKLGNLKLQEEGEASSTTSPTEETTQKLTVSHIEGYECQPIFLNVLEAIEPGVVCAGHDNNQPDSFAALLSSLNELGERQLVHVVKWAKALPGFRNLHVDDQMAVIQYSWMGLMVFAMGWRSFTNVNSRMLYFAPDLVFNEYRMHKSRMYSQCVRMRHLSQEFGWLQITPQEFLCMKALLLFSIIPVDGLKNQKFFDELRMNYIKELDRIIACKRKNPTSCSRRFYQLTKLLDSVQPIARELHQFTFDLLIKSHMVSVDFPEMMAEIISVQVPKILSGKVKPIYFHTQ
The experiment in a line: biochemical. In kind it is binding.

The test system of test [1] is levator ani muscle. The experiment in a line: Hershberger assays of compounds H-1 to H-4. The test is classed as in vivo, rat. Particulars: calculated in Win Non-Lin. On the procedure: FIG. 3 depicts results of Hershberger assays of compounds of the invention as described in Example 17. AUC is area under the concentration-time curve.
Hershberger assays as described above for Formulas VIII-XIV were also performed on compounds H-1, H-2, H-3, & H-4, as reported in FIG. 3, along with AR binding data in some cases in Table 11. The reported Emax values were calculated in Win Non-Lin®.

Test [2] concerns prostate, seminal vesicles and levator ani muscle. The experiment in a line: Androgenic and anabolic activity in castrated immature male rats, subcutaneous osmotic pumps, 14 days. The test is classed as in vivo, rat. On the procedure: Immature male Sprague-Dawley rats, weighing 90 to 100 g, were purchased from Harlan Biosciences (Indianapolis, Ind.). The animals were maintained on a 12 hour light-dark cycle with food and water available ad libitum.
Rats were randomly distributed into treatment groups groups. One day prior to the start of drug treatment, animals were individually removed from the cage, weighed and anesthetized with an intraperitoneal dose of ketamine/xylazine (87/13 mg/kg; approximately 1 mL per kg). When appropriately anesthetized (i.e., no response to toe pinch), the animals' ears were marked for identification purposes. Animals were then placed on a sterile pad and their abdomen and scrotum washed with betadine and 70% alcohol. The testes were removed via a midline scrotal incision, with sterile suture being used to ligate supra-testicular tissue prior to surgical removal of each testis. The surgical wound site was closed with sterile stainless steel wound clips, and the site cleaned with betadine. The animals were allowed to recover on a sterile pad (until able to stand) and then returned to their cage.
Twenty-four hours later, animals were re-anesthetized with ketamine/xylazine, and an Alzet osmotic pump(s) (model 2002) was placed subcutaneouly in the scapular region. In this instance, the scapular region was shaved and cleaned (betadine and alcohol) and a small incision (1 cm) made using a sterile scalpel. The osmotic pump was inserted and the wound closed with a sterile stainless steel wound clip. Animals were allowed to recover and were returned to their cage. Osmotic pumps contained the appropriate treatment dissolved in polyethylene glycol 300 (PEG300). Osmotic pumps were filled with the appropriate solution one day prior to implantation. Animals were monitored daily for signs of acute toxicity to drug treatment (e.g., lethargy, rough coat).
After 14 days of drug treatment, rats were anesthetized with ketamine/xylazine. Animals were then sacrificed by exsanguinations under anesthesia. A blood sample was collected by venipuncture of the abdominal aorta, and submitted for complete blood cell analysis. A portion of the blood was placed in a separate tube, centrifuged at 12,000 g for 1 minute, and the plasma layer removed and frozen at −20° C. The ventral prostates, seminal vesicles, levator ani muscle, liver, kidneys, spleen, lungs, and heart were removed, cleared of extraneous tissue, weighed, and placed in vials containing 10% neutral buffered formalin. Preserved tissues were sent for histopathological analysis.
For data analysis, the weights of all organs were normalized to body weight, and analyzed for any statistical significant difference by single-factor ANOVA. The weights of prostate and seminal vesicle were used as indexes for evaluation of androgenic activity, and the levator ani muscle weight was used to evaluate the anabolic activity.

Test [3] deals with levator ani muscle. The experiment in a line: Levator ani muscle weight in castrated rats treated subcutaneously for 14 days. The test is classed as in vivo, rat. Particulars: castrated Sprague Dawley rats, subcutaneous, 3 mg/day. From the text:
At sacrifice, organs were weighed and expressed as raw organ weights. Values are expressed as average±S.D. Increased size and strength of pelvic floor muscles is one mechanism by which SARMs are believed to affect UI.
At sacrifice, organs were weighed and expressed as raw organ weights. Values are expressed as average±S.D.

For test [4], the system named is female rats with experimentally induced stress urinary incontinence. Particulars: rat models of SUI; cited from earlier work.
[5] abbreviates: castrated rats, 0.10 mg/day, 14 days.
The mark [6] stands for this setting: castrated rats, 0.50 mg/day, 14 days.
The mark [7] stands for this setting: castrated rats, 0.75 mg/day, 14 days.
[8] abbreviates: castrated rats, 1.00 mg/day, 14 days.
Where [9] appears, read: compared with testosterone propionate.

In the case of `C[C@](O)(COc1ccc(Br)cc1)C(=O)Nc1ccc([N+](=O)[O-])c(C(F)(F)F)c1` [Compound H-3], the Ki on AR (read-out: Ki) stood at 13 ± 2 nM. Besides, the “Emax in levator ani muscle” value with levator ani muscle [1] is reported as 64 ± 4 % of intact control.

In the case of `C[C@](O)(COc1ccc(F)cc1)C(=O)Nc1ccc(C#N)c(C(F)(F)F)c1` [Compound X, (S)—N-(4-Cyano-3-(trifluoromethyl)phenyl)-3-(4-fluorophenoxy)-2-hydroxy-2-methylpropanamide], the Ki at AR (read-out: binding affinity) turned out to be 3.3 ± 0.08 nM. The “Levator Ani organ weight (Mean ± S.D.)” value in test [2] (setting [5]) was 54.9 ± 5.77 % of intact; in test [2] (setting [6]), 55.0 ± 9.23 % of intact; in test [2] (setting [7]) it was 68.9 ± 8.46 % of intact; in test [2] (setting [8]), 75.2±9.51 % of intact. Moreover, the “Prostate organ weight (Mean ± S.D.)” value was 6.4 ± 0.82 % of intact in test [2] (setting [5]), 6.2 ± 0.56 % of intact in test [2] (setting [6]), 7.6 ± 0.74 % of intact in test [2] (setting [7]) and 8.7±1.39 % of intact in test [2] (setting [8]). In addition, the “Seminal Vesicles organ weight (Mean ± S.D.)” value is on record as 8.8 ± 1.18 % of intact in test [2] (setting [5]), 9.3 ± 1.57 % of intact in test [2] (setting [6]), 9.8 ± 3.65 % of intact in test [2] (setting [7]) and 10.7±0.91 % of intact in test [2] (setting [8]). For the same compound, the “levator ani muscle weight” value with levator ani muscle [3] was “elicits hypertrophy of the levator ani muscle”.

Take `C[C@](O)(COc1ccc(Cl)cc1)C(=O)Nc1ccc(C#N)c(C(F)(F)F)c1` [Compound XI, (S)—N-(4-Cyano-3-(trifluoromethyl)phenyl)-3-(4-chlorophenoxy)-2-hydroxy-2-methylpropanamide]: at AR (read-out: binding affinity), the Ki was found to be 3.4 ± 0.08 nM. Moreover, the “dose able to maintain levator ani muscle weight of castrated animals at the level of intact animals” value in test [2] (castrated rats, 14 days) came out at 0.3 mg/day. In addition, the “weights of prostate, seminal vesicle and levator ani muscle” value in test [2] (castrated rats, 14 days, FIG. 2) is “dose-dependent increases in prostate, seminal vesicle and levator ani muscle weights”. In test [2] (setting [9]), the “potency and intrinsic activity in increasing the weight of levator ani muscle” value was “greater potency and intrinsic activity”; the “potency and intrinsic activity in increasing the weights of prostate and seminal vesicle” value is “lower potency and intrinsic activity”.

Consider `C[C@]12CC[C@H]3[C@@H](CCC4=CC(=O)CC[C@@]43C)[C@@H]1CC[C@@H]2O` [Testosterone, testosterone], for which the “leak point pressures and size of myofibers” value in test [4] is “improve leak point pressures and significantly increase the size of myofibers”.
